Experimental data from PubChem BioAssay (NCI).
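Tested at 5 concentrations; 48 h exposure; 96-well plates; endpoints linearly interpolated, else capped at highest concentration. GI50 is the concentration that inhibits growth by half. The concentration for full growth arrest is given as TGI.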

Assays:
Experiment in all cases: inhibition of tumour cell growth, NCI panel, 48 h
[1] = system: 786-0 renal
[2] = system: A498 renal
[3] = system: ACHN renal
[4] = system: BT-549 breast
[5] = system: CAKI-1 renal
[6] = system: CCRF-CEM leukemia
[7] = system: DU-145 prostate
[8] = system: EKVX NSCLC
[9] = system: HCT-15 colon
[10] = system: HL-60(TB) leukemia
[11] = system: HOP-62 NSCLC
[12] = system: HOP-92 NSCLC
[13] = system: HS 578T breast
[14] = system: IGROV1 ovarian
[15] = system: K-562 leukemia
[16] = system: LOX IMVI melanoma
[17] = system: MDA-MB-231 breast
[18] = system: MDA-MB-435
[19] = system: MOLT-4 leukemia
[20] = system: NCI-H226 lung
[21] = system: NCI-H23 lung
[22] = system: NCI-H522 lung
[23] = system: NCI/ADR-RES ovarian
[24] = system: OVCAR-3 ovarian
[25] = system: OVCAR-4 ovarian
[26] = system: OVCAR-5 ovarian
[27] = system: OVCAR-8 ovarian
[28] = system: RPMI-8226 leukemia
[29] = system: RXF 393 renal
[30] = system: SF-268 CNS
[31] = system: SF-539 CNS
[32] = system: SK-MEL-2 melanoma
[33] = system: SK-MEL-5 melanoma
[34] = system: SK-OV-3 ovarian
[35] = system: SN12C renal
[36] = system: SNB-19 CNS
[37] = system: SNB-75 CNS
[38] = system: SR leukemia
[39] = system: SW-620 colon
[40] = system: TK-10 renal
[41] = system: U251 CNS
[42] = system: UACC-257 melanoma
[43] = system: UACC-62 melanoma
[44] = system: UO-31 renal
[45] = system: A549 NSCLC
[46] = system: COLO 205 colon
[47] = system: HCC-2998 colon
[48] = system: HCT-116 colon
[49] = system: HT29 colon
[50] = system: KM12 colon
[51] = system: M14 melanoma
[52] = system: MALME-3M melanoma
[53] = system: MCF7 breast
[54] = system: NCI-H460 lung
[55] = system: PC-3 prostate
[56] = system: SF-295 CNS
[57] = system: SK-MEL-28 melanoma

## COc1cc2ncnc(Nc3ccc(Oc4ccnc(C)c4)c(C)c3)c2cc1NC(=O)CC1CCSS1 (stereo unspecified)
[1]
  GI50: > 50 µM
  TGI: > 50 µM
[2]
  GI50: 7.94 µM
  TGI: 22.8 µM
[3]
  GI50: 1.49 µM
  TGI: 8.48 µM
[4]
  GI50: 1.2 µM
  TGI: 2.94 µM
[5]
  GI50: 1.31 µM
  TGI: > 14.5 µM
[6]
  GI50: 0.253 µM
  TGI: 1.69 µM
[7]
  GI50: 1.44 µM
  TGI: 6.31 µM
[8]
  GI50: 1.36 µM
  TGI: > 50 µM
[9]
  GI50: 1.04 µM
  TGI: 2.31 µM
[10]
  GI50: 1.28 µM
  TGI: 2.83 µM
[11]
  GI50: 1.16 µM
  TGI: 2.91 µM
[12]
  GI50: 3.75 µM
  TGI: 23.1 µM
[13]
  GI50: 1.12 µM
  TGI: 3.21 µM
[14]
  GI50: 1.54 µM
  TGI: > 50 µM
[15]
  GI50: 0.253 µM
  TGI: 1.18 µM
[16]
  GI50: 2.62 µM
  TGI: > 50 µM
[17]
  GI50: 0.895 µM
  TGI: 1.98 µM
[18]
  GI50: 0.976 µM
  TGI: 2.48 µM
[19]
  GI50: 0.134 µM
  TGI: 0.435 µM
[20]
  GI50: 1.68 µM
  TGI: > 12.9 µM
[21]
  GI50: 1.07 µM
  TGI: 2.5 µM
[22]
  GI50: 0.861 µM
  TGI: 2.19 µM
[23]
  GI50: 2.14 µM
  TGI: > 50 µM
[24]
  GI50: 0.853 µM
  TGI: 1.6 µM
[25]
  GI50: 1.54 µM
  TGI: 24.3 µM
[26]
  GI50: 1.87 µM
  TGI: > 50 µM
[27]
  GI50: 2.19 µM
  TGI: > 50 µM
[28]
  GI50: 1.14 µM
  TGI: 3.31 µM
[29]
  GI50: 1.5 µM
  TGI: > 50 µM
[30]
  GI50: 0.94 µM
  TGI: 2.17 µM
[31]
  GI50: 1.29 µM
  TGI: > 10.7 µM
[32]
  GI50: 0.904 µM
  TGI: 1.91 µM
[33]
  GI50: 0.974 µM
  TGI: 1.99 µM
[34]
  GI50: 0.854 µM
  TGI: 1.63 µM
[35]
  GI50: 1.5 µM
  TGI: > 50 µM
[36]
  GI50: 1.08 µM
  TGI: 2.49 µM
[37]
  GI50: 1.41 µM
  TGI: > 25.2 µM
[38]
  GI50: 0.365 µM
  TGI: 2.99 µM
[39]
  GI50: 1.14 µM
  TGI: 2.71 µM
[40]
  GI50: 0.896 µM
  TGI: 1.84 µM
[41]
  GI50: 1.15 µM
  TGI: 2.81 µM
[42]
  GI50: 1.02 µM
  TGI: 2.35 µM
[43]
  GI50: 1.26 µM
  TGI: 3.71 µM
[44]
  GI50: 0.853 µM
  TGI: 2.83 µM

## CCC(C)C1=C(O)[N+]2([O-])Oc3ccc(C4=C(O)C(=O)C(c5ccc(O)cc5)=C(O)C4=O)cc3OC2(C(C)CC)C(=O)N1O (stereo unspecified)
[1]
  GI50: 26.1 µM
  TGI: > 100 µM
[2]
  GI50: 5.24 µM
  TGI: 41.9 µM
[45]
  GI50: 9.35 µM
  TGI: > 100 µM
[3]
  GI50: 11.6 µM
  TGI: > 100 µM
[4]
  GI50: 8.74 µM
  TGI: > 100 µM
[5]
  GI50: 3.77 µM
  TGI: 30.4 µM
[6]
  GI50: 13.1 µM
  TGI: 76.7 µM
[46]
  GI50: 12.6 µM
  TGI: > 100 µM
[7]
  GI50: 30.9 µM
  TGI: > 100 µM
[8]
  GI50: 23.7 µM
  TGI: > 100 µM
[47]
  GI50: 6.78 µM
  TGI: 57.2 µM
[48]
  GI50: 5.02 µM
  TGI: > 100 µM
[9]
  GI50: 5.82 µM
  TGI: > 100 µM
[10]
  GI50: 14.2 µM
  TGI: 86.7 µM
[11]
  GI50: 9.94 µM
  TGI: > 100 µM
[12]
  GI50: 9.29 µM
  TGI: > 100 µM
[13]
  GI50: 7.24 µM
  TGI: > 100 µM
[49]
  GI50: 31.4 µM
  TGI: > 100 µM
[14]
  GI50: 17 µM
  TGI: > 100 µM
[15]
  GI50: 8.03 µM
  TGI: > 100 µM
[50]
  GI50: 40.3 µM
  TGI: > 100 µM
[16]
  GI50: 7.28 µM
  TGI: 33.9 µM
[51]
  GI50: 2.75 µM
  TGI: 11.5 µM
[52]
  GI50: 14.7 µM
  TGI: 48.2 µM
[53]
  GI50: 4.25 µM
  TGI: > 100 µM
[17]
  GI50: 15.5 µM
  TGI: 63.8 µM
[18]
  GI50: 9.77 µM
  TGI: 90.6 µM
[19]
  GI50: 11 µM
  TGI: 41.8 µM
[20]
  GI50: 3.81 µM
  TGI: > 100 µM
[21]
  GI50: 13.3 µM
  TGI: > 100 µM
[54]
  GI50: 4.26 µM
  TGI: > 100 µM
[22]
  GI50: 19 µM
  TGI: > 100 µM
[23]
  GI50: 7.86 µM
  TGI: > 100 µM
[24]
  GI50: 5.39 µM
  TGI: 49.1 µM
[25]
  GI50: > 100 µM
  TGI: > 100 µM
[26]
  GI50: > 100 µM
  TGI: > 100 µM
[27]
  GI50: 6.34 µM
  TGI: > 100 µM
[55]
  GI50: 6.14 µM
  TGI: > 100 µM
[28]
  GI50: 6.74 µM
  TGI: > 100 µM
[29]
  GI50: 8.49 µM
  TGI: > 100 µM
[30]
  GI50: 5.83 µM
  TGI: > 100 µM
[56]
  GI50: 13.9 µM
  TGI: > 100 µM
[31]
  GI50: 15.8 µM
  TGI: > 100 µM
[57]
  GI50: 85.7 µM
  TGI: > 100 µM
[33]
  GI50: 6.82 µM
  TGI: 27.3 µM
[36]
  GI50: 4.95 µM
  TGI: 83.6 µM
[37]
  GI50: > 100 µM
  TGI: > 100 µM
[38]
  GI50: 1.25 µM
  TGI: 7.81 µM
[39]
  GI50: 25.4 µM
  TGI: > 100 µM
[40]
  GI50: 3.41 µM
  TGI: > 100 µM
[41]
  GI50: 6.25 µM
  TGI: > 100 µM
[42]
  GI50: 11.5 µM
  TGI: > 100 µM
[43]
  GI50: 5.68 µM
  TGI: 65.1 µM
[44]
  GI50: 22.2 µM
  TGI: > 100 µM
